Series [1] in a line: Determination of the microsomal half-life, rat liver microsomes. Conditions: for microsomal CLint at 0.5 μM: rat, liver microsomes, pH 7.4. (Microsomes from liver hold many membrane-bound enzymes, among them those of drug oxidation.)
Another series has as its target T1, PDE10A (human) (Homo sapiens, UniProt Q9Y233).
T1 construct: purchased BPS Bioscience
Nature of the series: Measurement of PDE activity (HTRF cAMP kit), human PDE10A. Conditions: PDE enzymatic reaction, substrate 20 nM for PDE10, 60 minutes at 29 C. It is filed as biochemical. An outline of the steps: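 HTRF detection of cAMP left after hydrolysis, expressed as percent of uninhibited control to derive IC50. Reaction: serially diluted inhibitor mixed with recombinant enzyme, started with 20 nM cAMP, 60 min at 29 °C in Tris-HCl pH 7.5 buffer containing MgCl2 and BSA.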

A short description of series [2]: Determination of the microsomal half-life, human liver microsomes. The following applies: for microsomal CLint at 0.5 μM: human, liver microsomes, pH 7.4.

Experimental findings from patent US9938269B2, “Inhibitor compounds of phosphodiesterase type 10A” (ABBVIE INC., priority 2011, dated 2018) are described below.

As usually defined, the IC50 is the concentration that gives 50% inhibition. One may read the microsomal CLint as the rate of metabolic loss divided by the concentration. A lower microsomal CLint goes with slow turnover.

Structures are written as SMILES. Structures can show the parent of a compound that is named as a salt.

T1 sequence (Q9Y233 whole entry): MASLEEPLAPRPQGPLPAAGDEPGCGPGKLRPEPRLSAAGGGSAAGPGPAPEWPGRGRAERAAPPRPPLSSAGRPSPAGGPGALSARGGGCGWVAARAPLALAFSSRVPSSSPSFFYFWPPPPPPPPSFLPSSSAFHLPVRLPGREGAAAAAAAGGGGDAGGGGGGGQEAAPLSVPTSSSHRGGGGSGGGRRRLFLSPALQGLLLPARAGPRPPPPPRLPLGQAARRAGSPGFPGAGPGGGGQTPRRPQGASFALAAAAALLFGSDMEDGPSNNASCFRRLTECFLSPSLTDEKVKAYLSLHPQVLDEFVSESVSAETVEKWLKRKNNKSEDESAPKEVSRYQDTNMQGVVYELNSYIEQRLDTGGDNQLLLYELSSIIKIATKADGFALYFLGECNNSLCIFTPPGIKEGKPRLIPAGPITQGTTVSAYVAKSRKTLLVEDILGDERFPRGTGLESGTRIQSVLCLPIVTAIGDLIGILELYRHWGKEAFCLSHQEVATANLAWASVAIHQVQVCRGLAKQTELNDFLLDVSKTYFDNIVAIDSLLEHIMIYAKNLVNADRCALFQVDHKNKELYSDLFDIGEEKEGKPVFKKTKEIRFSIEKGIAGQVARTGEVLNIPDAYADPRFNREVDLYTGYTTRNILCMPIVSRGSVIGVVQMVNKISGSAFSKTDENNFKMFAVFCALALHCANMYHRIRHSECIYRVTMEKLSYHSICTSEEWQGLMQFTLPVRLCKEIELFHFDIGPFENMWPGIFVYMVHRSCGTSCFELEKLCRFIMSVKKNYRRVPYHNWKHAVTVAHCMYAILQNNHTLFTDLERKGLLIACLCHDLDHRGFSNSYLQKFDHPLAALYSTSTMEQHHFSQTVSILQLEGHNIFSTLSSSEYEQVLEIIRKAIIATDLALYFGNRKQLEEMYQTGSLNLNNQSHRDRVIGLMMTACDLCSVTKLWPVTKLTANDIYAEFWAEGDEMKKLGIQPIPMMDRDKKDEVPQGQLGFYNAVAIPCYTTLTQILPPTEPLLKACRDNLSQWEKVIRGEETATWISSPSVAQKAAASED

Regarding `O=C(O)C(F)(F)F.O=C(O)C(F)(F)F.O=C1c2c(-c3ccc(F)cc3)ccnc2CN1CCc1ccc2ccccc2n1` [Example 160, 4-(4-Fluoro-phenyl)-6-(2-quinolin-2-yl-ethyl)-6,7-dihydro-pyrrolo[3,4-b]pyridin-5-one (di trifluoroacetate)], the “Rat mCl (mikrosomal clearance)” value in series [1] (rat liver microsomes, 0.5 μM test substance, 0.25 mg microsomal protein, pH 7.4, 37° C., NADPH) was “∘ (∘ not avialable or >220 μl min^−1 mg^−1)”. The IC50 against PDE10A (human) was less than 0.1 µM. Besides, the “Human mCl (mikrosomal clearance)” value in series [2] (human liver microsomes, 0.5 μM test substance, 0.25 mg microsomal protein, pH 7.4, 37° C., NADPH) is reported as “+ (+: 100-220 μl min^−1 mg^−1)”.
For `COc1ccc(-c2ccncc2)c2c1C(=O)N(CCc1nc3ccccc3s1)C2` [compound 396, 2-[2-(1,3-Benzothiazol-2-yl)ethyl]-7-methoxy-4-(4-pyridyl)isoindolin-1-one], the microsomal CLint at 0.5 μM in series [1] is 100 to 220 µL/min/mg; in series [2], less than 100 µL/min/mg. Further, the IC50 at PDE10A (human) is less than 0.1 µM.
Taken in the same sequence, the figures for `O=C(O)C1CCN(c2ccnc3c2C(=O)N(CCc2ccc4ccccc4n2)C3)CC1` [Example 366, 1-[5-Oxo-6-(2-quinolin-2-yl-ethyl)-6,7-dihydro-5H-pyrrolo[3,4-b]pyridin-4-yl]-piperidine-4-carboxylic acid] were less than 100 µL/min/mg, less than 100 µL/min/mg and 0.1 to 0.2 µM.
For the compound `O=C1c2c(cccc2N2CCOCC2)CN1CCc1nc2ccccc2s1` [Example 263, 2-(2-Benzothiazol-2-yl-ethyl)-7-morpholin-4-yl-2,3-dihydro-isoindol-1-one trifluoroacetate], the values for the microsomal CLint at 0.5 μM in series [1] and in series [2] were less than 100 µL/min/mg and 100 to 220 µL/min/mg, respectively. On PDE10A (human), this compound came in with an IC50 of less than 0.1 µM.
For `O=C1c2c(cccc2N2CCOCC2)CN1CCc1cccc(-c2ncccn2)c1` [Example 120, 7-Morpholino-2-(3-(pyrimidin-2-yl)phenethyl)isoindolin-1-one], the intrinsic metabolic clearance (microsomal CLint) at 0.5 μM in series [1] and in series [2] was 100 to 220 µL/min/mg each time. For the same compound, the IC50 at PDE10A (human) lay within 0.2 to 0.5 µM.
In the case of `CC(C)c1ccc(CCN2Cc3nccc(-c4ccncc4)c3C2=O)nc1` [compound 398, 6-[2-(5-Isopropyl-2-pyridyl)ethyl]-4-(4-pyridyl)-7H-pyrrolo[3,4-b]pyridin-5-one], the microsomal CLint at 0.5 μM in series [1] is more than 220 µL/min/mg; in series [2] it was 100 to 220 µL/min/mg. In addition, on PDE10A (human), the IC50 was less than 0.1 µM.
Take `O=C1c2c(-c3ccncc3)ccnc2CN1CCc1nc2ccccc2s1` [Example 375, 6-(2-Benzothiazol-2-yl-ethyl)-4-pyridin-4-yl-6,7-dihydro-pyrrolo[3,4-b]pyridin-5-one]: the microsomal CLint at 0.5 μM in series [1] and in series [2] was less than 100 µL/min/mg each time. The compound further had a half-maximal inhibitory concentration (IC50) at PDE10A (human) of less than 0.1 µM.
Take `O=C1c2c(-c3ccncc3)ccnc2CN1CCc1nc2ccc(F)cc2s1` [compound 402, 6-[2-(6-Fluoro-1,3-benzothiazol-2-yl)ethyl]-4-(4-pyridyl)-7H-pyrrolo[3,4-b]pyridin-5-one]: the microsomal CLint at 0.5 μM in series [1] and in series [2] was 100 to 220 µL/min/mg throughout. The compound further had a half-inhibitory concentration (IC50) against PDE10A (human) of less than 0.1 µM.
As for `COc1ccc2nc(CCN3Cc4cccc(N5CCOCC5)c4C3=O)ccc2c1` [Example 116, 2-[2-(6-Methoxy-quinolin-2-yl)-ethyl]-7-morpholin-4-yl-2,3-dihydro-isoindol-1-one hydrochloride], the results for the intrinsic clearance (microsomal CLint) at 0.5 μM in series [1] and in series [2] were less than 100 µL/min/mg and 100 to 220 µL/min/mg, respectively. This compound also gave an IC50 at PDE10A (human) of less than 0.1 µM.
On to `Cc1ccc2ccc(CCN3Cc4nccc(-c5ccncc5)c4C3=O)nc2c1` [compound 394, 6-[2-(7-Methyl-2-quinolyl)ethyl]-4-(4-pyridyl)-7H-pyrrolo[3,4-b]pyridin-5-one trifluoroacetate], for which the microsomal CLint at 0.5 μM in series [1] is more than 220 µL/min/mg; in series [2] it was less than 100 µL/min/mg. The IC50 on PDE10A (human) was less than 0.1 µM.
As for `O=C1c2c(-c3cncnc3)cc[n+]([O-])c2CN1CCc1ccc2ccccc2n1` [Example 296, 1-Oxy-4-pyrimidin-5-yl-6-(2-quinolin-2-yl-ethyl)-6,7-dihydro-pyrrolo[3,4-b]pyridin-5-one], the microsomal CLint at 0.5 μM in series [1] and in series [2] was less than 100 µL/min/mg throughout. On PDE10A (human), this compound displayed an IC50 of less than 0.1 µM.
Take `Cn1c(CCN2Cc3cccc(-c4ccncc4)c3C2=O)nc2ccccc21` [Example 195, 2-[2-(1-Methyl-1H-benzoimidazol-2-yl)-ethyl]-7-pyridin-4-yl-2,3-dihydro-isoindol-1-one]: the intrinsic clearance (microsomal CLint) at 0.5 μM in series [1] is 100 to 220 µL/min/mg; in series [2], more than 220 µL/min/mg. This compound also returned an IC50 against PDE10A (human) of less than 0.1 µM.
As to `O=C1c2c(cccc2-c2cncnc2)CN1CCc1cn2ccccc2n1` [Example 238, 2-(2-Imidazo[1,2-a]pyridin-2-yl-ethyl)-7-pyrimidin-5-yl-2,3-dihydro-isoindol-1-one], the microsomal CLint at 0.5 μM in series [1] is less than 100 µL/min/mg; in series [2], 100 to 220 µL/min/mg. This compound also gave an IC50 on PDE10A (human) of less than 0.1 µM.
`O=C1c2c(-c3cccnc3)ccnc2CN1CCc1nc2ccccc2s1` [compound 430, 6-[2-(1,3-Benzothiazol-2-yl)ethyl]-4-(3-pyridyl)-7H-pyrrolo[3,4-b]pyridin-5-one trifluoroacetate]: the microsomal CLint at 0.5 μM in series [1] and in series [2] was less than 100 µL/min/mg each time. This compound also gave a half-maximal inhibitory concentration (IC50) on PDE10A (human) of less than 0.1 µM.
For the compound `O=C1c2c(-c3ccncc3)ccnc2CN1CCc1ccc(-c2ccccc2)cn1` [compound 488, 6-[2-(5-Phenyl-2-pyridyl)ethyl]-4-(4-pyridyl)-7H-pyrrolo[3,4-b]pyridin-5-one trifluoroacetate], the figures for the microsomal CLint at 0.5 μM in series [1] and in series [2] were more than 220 µL/min/mg and 100 to 220 µL/min/mg, respectively. Moreover, on PDE10A (human), the IC50 was in the range of 0.2 to 0.5 µM.
On to `O=C1c2c(-c3ccncc3)ccnc2CN1CCc1ccc2ccccc2n1` [Example 3, 4-Pyridin-4-yl-6-(2-quinolin-2-yl-ethyl)-6,7-dihydro-pyrrolo[3,4-b]pyridin-5-one], for which the microsomal CLint at 0.5 μM is 100 to 220 µL/min/mg in series [1] and less than 100 µL/min/mg in series [2]. For the same compound, at PDE10A (human), the half-maximal inhibitory concentration (IC50) is less than 0.1 µM.
For the compound `[2H]C1([2H])OC([2H])([2H])C([2H])([2H])N(c2ccnc3c2C(=O)N(CCc2ccc4ccccc4n2)C3)C1([2H])[2H]` [compound 485, 4-(2,2,3,3,5,5,6,6-Octadeuteriomorpholin-4-yl)-6-[2-(2-quinolyl)ethyl]-7H-pyrrolo[3,4-b]pyridin-5-one], the microsomal CLint at 0.5 μM in series [1] and in series [2] was 100 to 220 µL/min/mg each time. The IC50 on PDE10A (human) was less than 0.1 µM.
For the compound `O=C1c2c(N3CCC4(COC4)C3)ccnc2CN1CCc1ccc2ccccc2n1` [Example 257, 4-(2-Oxa-6-aza-spiro[3.4]oct-6-yl)-6-(2-quinolin-2-yl-ethyl)-6,7-dihydro-pyrrolo[3,4-b]pyridin-5-one], the intrinsic metabolic clearance (microsomal CLint) at 0.5 μM in series [1] and in series [2] was 100 to 220 µL/min/mg in each case. Besides, the IC50 at PDE10A (human) was less than 0.1 µM.
As for `O=C1c2c(-c3cncnc3)ccnc2CN1CCc1nc2ccccn2n1` [Example 215, 4-Pyrimidin-5-yl-6-(2-[1,2,4]triazolo[1,5-a]pyridin-2-yl-ethyl)-6,7-dihydro-pyrrolo[3,4-b]pyridin-5-one], the microsomal CLint at 0.5 μM in series [1] and in series [2] was less than 100 µL/min/mg throughout. This compound also displayed a half-inhibitory concentration (IC50) against PDE10A (human) of 0.2 to 0.5 µM.
For `O=C1c2c(NC3COC3)ccnc2CN1CCc1ccc2ccccc2n1` [Example 275, 4-(Oxetan-3-ylamino)-6-(2-quinolin-2-yl-ethyl)-6,7-dihydro-pyrrolo[3,4-b]pyridin-5_], the microsomal CLint at 0.5 μM in series [1] and in series [2] was less than 100 µL/min/mg throughout. Also, the IC50 at PDE10A (human) was less than 0.1 µM.
